Test results as given in patent US11690824B2, “Antibacterial compounds” (THE GENERAL HOSPITAL CORPORATION, priority 2018, dated 2023).
Converted amounts (≈) assume the structure as drawn. Like-named read-outs stand apart in the source and are kept apart here.

Tests used:
S. aureus (MRSA) MW2 = assay: Minimal inhibitory concentration (MIC) assay, micro-dilution; assay type: cell-based; conditions: for MIC: Staphylococcus aureus
How it was run: (§1)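 MIC values come from the CLSI-recommended standard micro-dilution method, done as three biological replicates. Growth media: tryptic soy broth for S. aureus, brain-heart infusion for E. faecium, incubation at 37° C.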

S. aureus ATCC 29213 = assay: MIC assay; assay type: cell-based; conditions: Staphylococcus aureus, ATCC29213; S. aureus ATCC 29213; read-out: Minimum inhibitory concentration
How it was run: as §1

S. aureus ATCC 33591 = assay: MIC assay; assay type: cell-based; conditions: Staphylococcus aureus, ATCC33591; S. aureus ATCC 33591; read-out: Minimum inhibitory concentration
How it was run: as §1

S. aureus NCTC 8325 = assay: MIC assay; assay type: cell-based; conditions: Staphylococcus aureus, NCTC8325; S. aureus NCTC 8325; read-out: Minimum inhibitory concentration
How it was run: as §1

S. aureus Newman = assay: MIC assay; assay type: cell-based; conditions: Staphylococcus aureus; S. aureus Newman; read-out: Minimum inhibitory concentration
How it was run: as §1

S. aureus VRS1 = assay: MIC assay; assay type: cell-based; conditions: Staphylococcus aureus; S. aureus VRS1; read-out: Minimum inhibitory concentration
How it was run: as §1

MRSA MW2 = assay: SYTOX Green membrane permeability assay; assay type: cell-based, S. aureus
Experimental: SYTOX Green membrane permeability assay. […] The washed cells were adjusted to OD600=0.4 with PBS. SYTOX Green (Molecular Probes, Waltham, Mass., USA) was added to 10 mL of the diluted bacterial suspension to a final concentration of 5 μM and incubated for 30 min at room temperature in the dark. 50 μL of the bacteria/SYTOX Green suspension was mixed with 50 μl of PBS containing twice the desired concentrations of compounds in black, clear-bottom, 96-well plates (Corning no. 3904). Fluorescence was measured at room temperature using a spectrophotometer (SpectraMax M2, Molecular Devices), with excitation and emission wavelengths of 485 nm and 525 nm, respectively. All experiments were conducted in biological triplicate.

For `O=C(O)c1c(Sc2ccccc2)c2cc(Cl)ccc2n1Cc1ccc(Cl)cc1` [nTZDpa], the MIC (S. aureus (MRSA) MW2; S. aureus (MRSA) MW2, read-out: Minimum inhibitory concentration) was 4 µg/mL (≈ 9.34 µM), the MIC (S. aureus (MRSA) MW2; Table 3, growing MRSA, read-out: MIC) was 4 µg/mL (≈ 9.34 µM) and the “MIC relative to MIC of vancomycin” value (S. aureus (MRSA) MW2; fold higher) was 4 fold. The MIC (S. aureus ATCC 29213) was 4 µg/mL (≈ 9.34 µM), the MIC (S. aureus ATCC 33591) was 4 µg/mL (≈ 9.34 µM) and the MIC (S. aureus NCTC 8325) was 4 µg/mL (≈ 9.34 µM). The MIC (S. aureus Newman) was 4 µg/mL (≈ 9.34 µM), the MIC (S. aureus VRS1) was 4 µg/mL (≈ 9.34 µM) and the “concentration of maximum SYTOX Green fluorescence” value (MRSA MW2) was 16 µg/mL.
